The values below come from patent publication US8778984B2, “Aldosterone synthase inhibitor” (Eli Lilly and Company, priority 2011, dated 2014).

Test [1] addresses T1, human cyp11B2 (Homo sapiens, UniProt P19099).
T1 construct: expressed in transfected cells
T1 sequence (P19099 25-503): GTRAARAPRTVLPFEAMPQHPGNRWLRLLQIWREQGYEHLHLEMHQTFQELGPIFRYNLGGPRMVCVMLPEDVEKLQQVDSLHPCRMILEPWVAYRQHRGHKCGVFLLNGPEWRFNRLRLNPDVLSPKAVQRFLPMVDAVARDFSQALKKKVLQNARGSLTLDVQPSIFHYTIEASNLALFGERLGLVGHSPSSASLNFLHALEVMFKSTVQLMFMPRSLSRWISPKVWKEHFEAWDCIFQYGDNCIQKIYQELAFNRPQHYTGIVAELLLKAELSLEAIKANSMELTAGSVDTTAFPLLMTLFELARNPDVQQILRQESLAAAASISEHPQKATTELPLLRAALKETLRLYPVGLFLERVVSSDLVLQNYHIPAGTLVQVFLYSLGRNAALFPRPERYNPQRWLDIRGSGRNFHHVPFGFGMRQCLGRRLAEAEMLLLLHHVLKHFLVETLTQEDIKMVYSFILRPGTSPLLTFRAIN
The test is described as follows: Aldosterone Synthase Inhibitor Assay (V79-hcyp11B2 cells, aldosterone by LC-MS). Format: cell-based. As to conditions: aldosterone production from 1 μM DOC, 24 hours incubation, geometric means, separate experiments. On the procedure: Chinese hamster fibroblast cells (V79, ATCC™) constitutively expressing human cyp11B2 are established by transfection with a mammalian expression vector harboring the human cyp11B2 cDNA under CMV promoter and a neomycin antibiotic resistant gene for selection in mammalian cells. V79 cells are transfected in T225 cm^2 flasks with the lipofectamine transfection reagent and the human cyp11B2 cDNA. Positive clones are selected with the selection antibiotic geneticin at 1 mg/mL.
Aldosterone production from transfected cells is initiated by the addition of 1 μM DOC in the medium. After 24 hours incubation, 100 μL cell culture medium is collected and aldosterone concentration in the medium is determined using a liquid chromatography-mass spectrometry (LC-MS) method. […] The wells are then extracted 3× with EtOAc (150 μl) using the FX, combining the organic layers in a new 96-well plate. The solvent is dried in a GeneVac HT-4 or under nitrogen. […] A 25 μl aliquot of the sample is injected and a gradient from 20-100% ACN+0.1% formic acid (FA) in 1 min is initiated. Aldosterone elutes at 0.7 min. Starting conditions are held for 1 minute to re-equilibrate the column. An ABI 4000 tandem mass spectrometer is used for MS/MS analysis in the negative ion mode. […] The area under the peak from each transition is added together to comprise the signal from aldosterone and IS, respectively. […] The detection limit for aldosterone is […].
DOC and various concentrations of test compounds in 1:3 dilution increments are added to the cell culture medium. After 24 hours incubation, 100 μl of cell medium are collected and aldosterone concentration determined as described above. Data are fit to a 4 parameter-fit logistics curve to determine IC50 values.

In test [2] the test system is aldosterone production in rats. As to the kind of experiment: Inhibition of Aldosterone Synthase in Rats (rat sodium-deficiency diet model). As to conditions: for % Inhibition 3 hrs / % Inhibition 6 hrs: inhibition of aldosterone vs vehicle; for % Inhibition 3 hrs / Aldosterone (pg/mL) 3 hrs: 3 hrs post oral dose; for % Inhibition 3 hrs / % Inhibition 6 hrs / Aldosterone (pg/mL) 3 hrs / Aldosterone (pg/mL) 6 hrs: Example 1 10.0 mg/kg, Example 49 30.0 mg/kg, Fadrozole 1.0 mg/kg; for % Inhibition 6 hrs / Aldosterone (pg/mL) 6 hrs: 6 hrs post oral dose; for effect on aldosterone production in vivo (in words) / Aldosterone (pg/mL) 3 hrs / Aldosterone (pg/mL) 6 hrs: rat Na-deficient diet model; for effect on aldosterone production in vivo (in words): summary of Table 18; for Aldosterone (pg/mL) 3 hrs / Aldosterone (pg/mL) 6 hrs: serum. Format: in vivo. As for the experimental part:
The effect of compounds on aldosterone production in rats is assessed using the rat sodium-deficiency diet model. […] At 3 hours post dose rats are bled (˜0.5 mL) from the ocular orbit under isoflurane anesthesia. At 6 hours post-dose the rats are euthanized with CO2 and bled by cardiac puncture. Blood samples are clotted at least 30 minutes and serum is prepared and stored at approximately −80° C. until assayed. Aldosterone, steroids, and compound exposure are analyzed by mass spectroscopy.

In test [3] the test system is estradiol production from H295R cells. As to the kind of experiment: cells. Format: cell-based, human. As to conditions: for inhibition of estradiol production (in words) / IC50: H295R cells; for IC50: Homo sapiens, NCI-H295R, 48 hours incubation, read-out: Estradiol IC50; for Selectivity ratio for aldosterone compared with estradiol: estradiol IC50 (H295R) relative to aldosterone IC50 (hcyp11B2). As for the experimental part: (§1) The human adrenocarcinoma cell line H295R is used to monitor the production of testosterone and estradiol in vitro. […] Various concentrations of test compounds in 1:3 dilution increments are added to the cell culture medium. After incubation for 48 hours, 100 μl culture medium is collected and d5-estradiol and d3-testosterone are added as ISs for estradiol and testosterone respectively.
(§2) An equal volume of sodium carbonate/sodium bicarbonate buffer (0.5 mol/L, pH 9.4) is added to the samples followed by freshly prepared dansyl chloride solution (50 μl, 20 mg/mL). Samples are mixed and incubated for 60 min at 60° C. The samples are then extracted 3× with EtOAc ([…]) using the FX, combining the organic layers in a new deep-well 96-well plate. The solvent is then dried in a GeneVac HT-4 or under nitrogen. The FX is used to reconstitute the samples in 50% MeOH/water ([…]) and the plates are heat-sealed.
(§3) A 40 μl aliquot of the sample is injected and a gradient from 20-100% MeOH in 0.95 min is initiated. An ABI QTRAP 4000 tandem mass spectrometer is used for MS/MS analysis in the positive ion mode. […] These peaks are separately integrated to give the peak areas. The area ratios of testosterone/IS and estradiol/IS are used to determine testosterone and estradiol concentrations by comparison to their respective standard curves. The detection limits for testosterone and estradiol are 0.1 ng/mL and 0.01 ng/mL respectively.

Test [4] deals with testosterone production from H295R cells. As to the kind of experiment: cells. The test is classed as cell-based, human. As to conditions: for inhibition of testosterone production (in words) / IC50: H295R cells; for IC50: Homo sapiens, NCI-H295R, 48 hours incubation, read-out: Testosterone IC50; for Selectivity ratio for aldosterone compared with testosterone: testosterone IC50 (H295R) relative to aldosterone IC50 (hcyp11B2). As for the experimental part:
as §1, §2, §3

Test [5] concerns the target cynomolgus monkey cyp11B1 (Macaca fascicularis, UniProt A0A2K5ULY1). The test is described as follows: Cynomolgus Monkey Cortisol Inhibition Assay. Format: cell-based. The note with it: V79 cells expressing cynomolgus monkey cyp11B1; n=1; read-out: relative IC50, cynomolgus monkey cortisol inhibition assay. On the procedure:
Chinese hamster fibroblast cells (V79) constitutively expressing cynomolgus monkey cyp11B1 is established by transfection with a mammalian expression vector harboring the cynomolgus monkey cyp11B1 cDNA. This cell line was used to measure the activity of compounds in inhibiting […] from cynomolgus monkey enzyme. Cell culture condition and cortisol detection method is performed following the same protocol described in the “cortisol inhibition assay”.

cynomolgus monkey cyp11B1, sequence (A0A2K5ULY1 entry or part of it): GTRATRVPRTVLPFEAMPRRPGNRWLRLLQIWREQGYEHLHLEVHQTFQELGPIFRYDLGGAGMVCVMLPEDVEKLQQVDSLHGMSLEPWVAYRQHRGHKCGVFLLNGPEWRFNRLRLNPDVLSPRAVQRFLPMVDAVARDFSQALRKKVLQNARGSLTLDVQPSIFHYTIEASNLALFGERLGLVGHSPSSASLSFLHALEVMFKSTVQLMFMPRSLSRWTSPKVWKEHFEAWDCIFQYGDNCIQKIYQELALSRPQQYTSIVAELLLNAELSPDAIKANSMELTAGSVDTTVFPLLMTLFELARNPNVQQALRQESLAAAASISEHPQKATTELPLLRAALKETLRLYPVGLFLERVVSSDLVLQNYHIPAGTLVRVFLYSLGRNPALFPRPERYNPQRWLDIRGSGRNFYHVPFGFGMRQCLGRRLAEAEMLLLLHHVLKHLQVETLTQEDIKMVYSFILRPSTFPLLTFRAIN

The IC50 is the concentration that gives 50% inhibition. `CC1(C)C[C@H](c2ccc(C#N)cc2)c2cn[nH]c21` (single isomer, unassigned) [Example 1]: in test [1], the midpoint of inhibition, the IC50, lay at 5 nM. In test [2], the “% Inhibition 3 hrs” value turned out to be 48%, the “% Inhibition 6 hrs” value amounted to 46%, the “effect on aldosterone production in vivo (in words)” value is given as “inhibit aldosterone production in vivo” and the “Aldosterone (pg/mL) 3 hrs” value came to 973 pg/mL. Further, the “Aldosterone (pg/mL) 6 hrs” value in test [2] is on record as 1380 pg/mL. Besides, in test [3], the “inhibition of estradiol production (in words)” value is given as “weak inhibition”, the IC50 turned out to be 13.2 µM and the “Selectivity ratio for aldosterone compared with estradiol” value came out at 2640. Also, in test [4], the “inhibition of testosterone production (in words)” value was “weak inhibition”, the IC50 is greater than 30 µM and the “Selectivity ratio for aldosterone compared with testosterone” value is on record as greater than 6000. The IC50 in test [5] turned out to be 209 nM.

In the case of `CC1(C)CC(c2ccc(C#N)cc2F)c2cn[nH]c21` (single isomer, unassigned; isomer 1) [Example 49, 4-(6,6-Dimethyl-4,5-dihydro-1H-cyclopenta[c]pyrazol-4-yl)-3-fluoro-benzonitrile, isomer 1], in test [1], the IC50 was 7 nM. Further, in test [2], the “% Inhibition 3 hrs” value came to 46%, the “% Inhibition 6 hrs” value is on record as 33%, the “effect on aldosterone production in vivo (in words)” value is “inhibit aldosterone production in vivo” and the “Aldosterone (pg/mL) 3 hrs” value was determined as 1008 pg/mL. In addition, in test [2], the “Aldosterone (pg/mL) 6 hrs” value is 1704 pg/mL. In test [3], the “inhibition of estradiol production (in words)” value was “weak inhibition”, the IC50 was found to be 22 µM and the “Selectivity ratio for aldosterone compared with estradiol” value was 3143. Moreover, in test [4], the “inhibition of testosterone production (in words)” value is “weak inhibition”, the IC50 is greater than 30 µM and the “Selectivity ratio for aldosterone compared with testosterone” value is on record as greater than 4285. Further, the IC50 in test [5] stood at 579 nM.
